Reference: article PMC11242853, “The Antimicrobial Activity of Human Defensins at Physiological Non-Permeabilizing Concentrations Is Caused by the Inhibition of the Plasma Membrane H^+-ATPases” (International Journal of Molecular Sciences, 2024)

Columns and labels:
[1] = system: Pseudomonas aeruginosa PAO1; assay: Antimicrobial spread-plate (CFU) killing assay, P. aeruginosa; type: cell-based
Protocol: (§1) To determine whether the above microbicidal concentrations exert a permeabilizing effect on fungal and bacterial membranes, the influx of the fluorescent nucleic acid-binding dye propidium iodide (PI) in cells incubated with the peptides was assessed. In cells, dye uptake reflects membrane permeabilization, as PI itself cannot permeate through an intact phospholipid bilayer. […] To select an antimicrobial but non-permeabilizing concentration of each peptide for further assays, we defined as a non-permeabilizing inhibitory concentration (NPIC) the antimicrobial inhibitory concentration (≤10% viable cells) that permeabilized ≤ 10% of cells incubated (90 min at 37 °C) in buffer solution.
(§2) Microbial susceptibility to the peptides was determined in a spread-plate assay as described previously. Briefly, cell suspensions (10^6 cells/mL) in Tris buffer (10 mM Tris-HCl, pH 7.4) were incubated for 90 min at 37 °C with 2-fold serial peptide dilutions. Peptide concentrations ranged from 0 to 2 μM. After incubation, the number of viable cells was determined by plating aliquots (100 μL) in duplicate on plates (SDA for C. albicans, TSA for P. aeruginosa, and M17G agarified medium for L. lactis) that had been dried for 30 min at room temperature in a laminar flow hood. Plates were incubated for 24–48 h at 30 °C (C. albicans and L. lactis) or 24 h at 37 °C (P. aeruginosa). Dilutions yielding 50–200 colonies were counted. Cell viability values, expressed as colony-forming units (CFUs), were calculated relative to the incubation without added peptides and represent the means ± standard deviation (SD) from duplicates of three independent experiments. For inhibition assays, unless otherwise noted, cell suspensions were preincubated (15 min at 37 °C) with the appropriate inhibitor prior to the addition of peptides, but the inhibitor was present throughout the incubation period with the peptide (90 min at 37 °C). Other specific experimental conditions are described as appropriate. In some experiments, the concentrations of human lactoferrin against C. albicans (5 μM), P. aeruginosa (1 μM), and L. lactis (0.065 μM) were used in the control assays. In various viability assays, BM2 peptide (0.25 μM), CCCP (50 μM), colistin (4 μg/mL), nystatin (50 μM), oligomycin A (16 μg/mL), piericidin A (32 μM), and TEA (10 mM) were used.

C. albicans cells [2] = assay: Oxygen consumption measurement (polarographic), C. albicans; type: cell-based, Candida albicans; details: after 30 min; defensins 2 x NPIC, human lactoferrin 20 μM, piericidin A 32 µM; preincubated 15 min at 37 °C; untreated cells 94% ± 2%; means ± SD, three experiments
Protocol: (§3) Oxygen consumption by C. albicans and P. aeruginosa cells was determined by polarographically using a biological oxygen monitor (dual digital-model 20; Rank Brothers Ltd., Cambridge, UK) at 25 °C. The apparatus consisted of a twin water-jacketed closed sample chamber, which enabled a control experiment to be conducted concurrently. The cells were grown to mid-log phase in SDB (C. albicans) or TSB (P. aeruginosa), washed twice in Tris buffer, and resuspended in the same buffer. Cell suspensions (approximately 10^7 cells/mL) were preincubated with defensins (2 x NPIC), human lactoferrin (20 μM), or piericidin A (32 μM) for 15 min at 37 °C. Oxygen consumption was recorded at 5-min intervals for a period of 30 min. Three independent experiments were performed, and the data are means ± SD.

P. aeruginosa cells = assay: Oxygen consumption measurement (polarographic), P. aeruginosa; type: cell-based, Pseudomonas aeruginosa; details: after 30 min; defensins 2 x NPIC, human lactoferrin 20 μM, piericidin A 32 µM; preincubated 15 min at 37 °C; untreated cells 83% ± 2%; means ± SD, three experiments
Protocol: as §3

C. albicans cells [3] = assay: Extracellular potassium measurement (K+-efflux, ICP-MS); type: cell-based, Candida albicans
Protocol: Potassium measurements were performed via inductively coupled plasma mass spectrometry using an Agilent 7700x ICP-MS (Agilent Technologies, Santa Clara, CA, USA). C. albicans cells were cultured in SDB for 16–20 h at 30 °C. The cells were then subcultured in the same media to the mid-logarithmic growth phase and rapidly washed in sterile, deionized, double-distilled water. The cells (10^7 cells/mL) were immediately incubated with the peptides (NPIC) for 90 min at 37 °C. The tubes were centrifuged at 1100× g for 10 min and the supernatants were collected and stored at 4 °C until analysis. The percentage of cytosolic potassium released from cell suspensions treated with nystatin (50 μM) was determined in positive control assays. Total cellular K^+-content (100% value) was measured in the supernatant of cell suspensions previously treated with 0.5% (v/v) HClO4 alone, heated for 1 h at 95 °C, and centrifuged to remove cell debris. Results are expressed as the percentage (means ± SD) of K^+-release relative to the total cellular K^+-content from duplicates of at least three independent assays.

C. albicans cells [4] = assay: Total cellular ATP (BacTiter-Glo); type: cell-based, Candida albicans; details: defensins at NPIC, human lactoferrin 5 μM, BM2 peptide 0.25 μM; 10^6 cells/mL; BacTiter-Glo luminescence
Protocol: Total ATP was measured using the BacTiter-Glo^TM Microbial Cell Viability Assay (Promega Co., Madison, WI, USA) according to the manufacturer’s instructions. […] Aliquots (100 µL) were incubated (90 min at 37 °C) with human defensins (NPICs). Human lactoferrin (5 μM) or BM2 peptide (0.25 μM) was used as positive controls. One hundred microliters of the incubation mixture was transferred to an opaque 96-well plate, mixed with an equal volume of BacTiter-Glo^TM reagent, and incubated for 15 min in the dark. The reagent uses a thermostable luciferase to generate luminescence in an ATP-dependent manner. The emitted luminescence was detected using a Varioskan Flash multimode reader (Thermo Scientific, Waltham, MA, USA) with a 10 s shaking and 1 s integration time. A calibration curve was generated for each experiment with ATP standards ranging from 1 to 1000 nM. All assays were performed at least three times in duplicate.

[5] = system: Candida albicans ATCC 10231; assay: Antimicrobial spread-plate (CFU) killing assay, C. albicans; type: cell-based; details: for effect of high extracellular K+ on candidacidal activity: 50 mM KCl, defensins at NPIC, hLf 5 μM, BM2 0.25 μM, nystatin 50 μM; for effect of Tok1p inhibition (TEA) on candidacidal activity: preincubation 15 min at 37 °C with 10 mM TEA+
Protocol: as §1, §2

C. albicans cells [6] = assay: Membrane potential monitoring with DiBAC4(3), flow cytometry; type: cell-based, Candida albicans; details: peptides at NPIC, hLf 5 μM, BM2 0.25 μM; DiBAC4(3) 1 µg/mL
Protocol: The membrane potential-sensitive probe DiBAC4(3) was used to monitor the transmembrane electrical potential of C. albicans cells as previously described with slight modifications. Briefly, cells were harvested from mid-log phase cultures via centrifugation and suspended in Tris buffer. The cell suspension was adjusted to 10^6 cells/mL and then incubated with DiBAC4(3) at a final concentration of 1 µg/mL for 30 min. Fluorescence was measured using a CytoFLEX S flow cytometer (Beckman Coulter) with excitation at 561 nm and emission at 690/50 nm. For each treatment, 5000 events were counted per experiment with an exposure time of 1000 ms. Results were analyzed using CytExpert 2.1 Acquisition software. As positive controls, human lactoferrin and BM2 peptide were used. Three independent experiments were performed and data are expressed as means ± SD.

For “colistin (polymyxin E) [reference compound]”, the “effect of high extracellular K+ on pseudomonacidal activity” value ([1]; 50 mM KCl, defensins at NPIC, hLf 1 μM, colistin 4 μg/mL) was “no effect”.
For `C/C=C(\C)[C@H](O)[C@H](C)/C=C(C)/C=C/C/C(C)=C/Cc1nc(OC)c(OC)c(O)c1C` [piericidin A, reference compound], the “oxygen consumption percentage of C. albicans” value (C. albicans cells [2]) was 20% ± 3% and the “O2 consumption of P. aeruginosa” value (P. aeruginosa cells) was 17% ± 3%.
For `N#CC(C#N)=NNc1cccc(Cl)c1` [CCCP, carbonyl cyanide m-chlorophenylhydrazone, reference compound], the “viability of P. aeruginosa with CCCP alone, acidic extracellular pH” value ([1]; 50 µM CCCP, pH of 5.5 and 6.5) was “decreased” and the “viability of P. aeruginosa with CCCP alone, alkaline pH” value ([1]; 50 µM CCCP, pH of 7.4, 7.7, and 8.0) was “not significantly altered”.
“D-NH2-RRRFWWFRRR-CONH2 [BM2 peptide, positive control, reference compound]” was tested, and the “K^+-efflux pattern in C. albicans” value (C. albicans cells [3]; peptides at NPIC / microbicidal concentrations, 10^7 cells/mL, 90 min at 37 °C, steady state compared with maximum intracellular K+ of untreated cells) was “partial K^+-efflux”, the “increase in ATP levels compared to the untreated control” value (C. albicans cells [4]) was ~ 9 fold and the “effect of high extracellular K+ on candidacidal activity” value [5] was “significantly decreased”. The “effect of piericidin A on candidacidal activity” value ([5]; cells preincubated 15 min at 37 °C with 32 µM piericidin A, then peptides (NPIC) 90 min) was “significantly (p < 0.001) inhibited”, the “effect of oligomycin A on candidacidal activity” value ([5]; preincubated 15 min at 37 °C with 16 μg/mL oligomycin A, peptides at NPIC) was “significantly reduced” and the “effect of Tok1p inhibition (TEA) on candidacidal activity” value ([5]; peptides at NPIC) was “reduced”. For the same molecule, the “transmembrane electrical potential (DiBAC4(3) fluorescence)” value (C. albicans cells [6]) was “increase in DiBAC4(3) fluorescence”.
`C[C@@H]1[C@H](O)[C@@H](C)/C=C/C=C/CC/C=C/C=C/C=C/C=C/C(O[C@H]2O[C@H](C)[C@@H](O)[C@H](N)[C@@H]2O)CC2O[C@](O)(CC(O)C(O)CCC(O)CC(O)CC(O)CC(=O)O[C@H]1C)CC(O)C2C(=O)O` (stereo partly drawn) [nystatin, reference compound] was tested, and the “K^+-release from yeast cells” value (C. albicans cells [3]; nystatin 50 μM, 90 min, 37 °C, relative to total cellular K+-content (100%), ICP-MS) was 70–85%, the “effect of high extracellular K+ on candidacidal activity” value [5] was “no effect” and the “effect of Tok1p inhibition (TEA) on candidacidal activity” value ([5]; peptides at NPIC) was “not altered”.
